Source: US20260345584A1, “METHODS AND PHARMACEUTICAL COMPOSITIONS FOR TREATING CHEMOTHERAPY-INDUCED PERIPHERAL NEUROPATHY WITH EG5 INHIBITORS” (UNIVERSITY OF MIAMI, priority 2023, published 2026)

Experiments:
nox1 = assay: Nox1 immunofluorescence: subcellular translocation in keratinocytes; type: in vivo, zebrafish; settings: EMD534085 alone, 96 hr
Experimental: The stock solution was divided into 20-30 μl aliquots and stored at −20 °C until use (maximal 6 months). Immediately prior to use, paclitaxel was diluted in Ringer's solution and added to dechorionated larval zebrafish. The larval fish were placed individually or in small groups into wells of a 12-well plate containing the treatment solutions. The control group was 0.05% DMSO. Plates were incubated at 28.5 °C and protected from light. Treatment lengths are indicated in the Drawings, Description of the Drawings, and Examples where appropriate. […] EMD534085, Eg5 inhibitor (MedChemExpress, Cat. No. HY-15000) was diluted in 100% DMSO to make a 10 mM stock solution and stored at −20 °C. […] The solutions were exchanged every 48 hr. […]
Measurements were determined by measuring fluorescence intensity in Fiji using single slice and single channel modes. First, a line using the line tool was placed along the plasma membrane that was clearly distinguishable from the cytoplasm due to increased fluorescence compared with the cytoplasm in all treatment groups. The measurement tool was subsequently selected to measure the mean fluorescence intensity. […] To determine the mean cytoplasmic fluorescence intensity, nuclei were first overlaid with Nox1 fluorescence to ensure the exclusion of nuclear measurements. […] The fluorescence data was exported to Excel and the ratios calculated.

[1] = tested on: Tau-Bfp2 microtubules in keratinocytes; assay: Tau-Bfp2-stabilized microtubules in keratinocytes; type: in vivo, zebrafish; settings: 96 hr
Experimental: Fish were anesthetized in 2-phenoxyethanol (1:1000) in Ringer's solution prior to imaging and mounted in 1.2% agarose. EB3-GFP and Tau-Bfp2 were imaged with a scan speed kept at the maximum level in single slice mode with […] for a total of 60s to capture microtubule dynamics. h2a:H2A-GFP time-lapse recordings were produced (Zeiss LSM880 AiryScan confocal microscope) with 1 μm sections recorded every 10 min for 12 hr using 800×800 pixels. All other live fish were imaged using 1024×1024 pixels.
Microtubule analyses was performed in Imaris 9.5.1 (Bitplane) by measuring the straightness of filaments (microtubules) using the “Filaments—Dendrite Straightness” tool, which was defined as the ratio between […] between two branch points (h). The value was always smaller than 1 since the Dendrite Straightness of 1 defines straight objects.
EB3-GFP tracking was done in Fiji using the MTrackJ plugin to trace microtubules over time and create Kymographs, measure the velocity, track length, and comet duration. Tracking was also performed using the Spots and Surface tools in Imaris. Settings were initially automatically detected to fit the fluorescence and subsequently modified manually for improved fit. Settings were maintained between treatment groups.
Tau therefore seems to prevent paclitaxel-induced dfMT formation.
Thus EB3-GFP plus-ends appeared in part to grow along pre-existing stable microtubules, which could be a means to maintain cellular organization.

CN(C)CCNC(=O)NC[C@H]1CC[C@@H]2[C@H](O1)c1cc(C(F)(F)F)ccc1N[C@H]2c1ccccc1 [EMD534085]
Nox1 Membrane:cytoplasmic ratio (nox1): 1.7±0.1
Nox1 Nucleus:cytoplasmic ratio (nox1): 1.36±0.08

CC(=O)O[C@H]1C(=O)[C@@]2(C)[C@H]([C@H](OC(=O)c3ccccc3)[C@]3(O)C[C@H](OC(=O)[C@H](O)[C@@H](NC(=O)c4ccccc4)c4ccccc4)C(C)=C1C3(C)C)[C@]1(OC(C)=O)CO[C@@H]1C[C@@H]2O [paclitaxel]
EB3-GFP puncta co-localized with Tau-Bfp2 ([1]; Tau-Bfp2 + 22 μM paclitaxel): 91.26±1.64%
velocity of EB3-GFP plus-ends ([1]; Tau-Bfp2 + paclitaxel): 0.184±0.003 μm/s
microtubule straightness (1=straight, 0=curved) ([1]; strong Tau-Bfp2 + paclitaxel): 0.98±0.002
